Results published in patent US20230295164A1, “COMPOUNDS HAVING ANTIBACTERIAL ACTIVITY” (The Trustees of Princeton University, priority 2020, published 2023).
In brackets after ≈: the same amount, converted by molar mass.

Experiments:
Experiment in all cases: MIC testing, broth microdilution in CAMHB
Type in all cases: cell-based
[1] = tested on: Acinetobacter baumannii, ATCC 17978; conditions: 18-20 hr, lowest concentration that completely inhibits visible growth; for MIC: Acinetobacter baumannii, ATCC17978, 37° C., read-out: Compound MICs, Acinetobacter baumannii, ATCC 17978; for Compound MICs, Acinetobacter baumannii, ATCC 17978: 37° C.
Experimental: (§1) Compounds 1-71 were subsequently tested to determine MICs of the compounds relative to the following five species/strains of bacteria: Staphylococcus aureus, NRS384; Enterococcus faecalis, ATCC 51575; Salmonella typhimurium, CMCC 50115; Escherichia coli, ATCC BAA-198; and Acinetobacter baumannii, ATCC 17978. MIC testing of compounds was conducted according to the following protocol.
(§2) For each strain to be tested, made fresh streaks onto CAMHA from −80° C. glycerol stocks.
(§3) • CAMHB: Dissolved 22 g of the powder per 1 L of purified water. Mixed well. Autoclaved at 121° C. for 10 minutes. Stored at room temperature (RT) for no more than 1 week. • Saline: Dissolved 9 g of the powder per 1 L of purified water. Mixed well. Autoclaved at 121° C. for 30 minutes. Stored at room temperature (RT) for no more than 1 week.
(§4) Prepared the stock solutions of the tested compounds.
(§5) For compounds: • a) Dispensed 20 ul compound to the wells in column 1, and 20 ul DMSO to the wells in column 2 to 12; • b) Diluted the compounds by transferring 10 ul compounds from column 1 to 20 ul DMSO in column 2; mix with pipette. • c) Repeated until column 11 to get 3×serial dilutions. Column 12 was the DMSO control.
(§6) A multichannel pipette was used to deliver 1 μl of the diluted compound into each well of the corresponding daughter plate.
(§7) Scraped 4-8 single colonies from an agar plate into 5 ml saline in a 14 ml Falcon conical tube. Vortexed the tube to suspend the bacteria. Adjusted the turbidity to ˜0.2 (corresponding to 0.5 McFarland) with an Ultrospec 10 Cell density meter.
(§8) The strain suspension was diluted 200-fold in CAMHB medium and dispense into a sterile reservoir. A multichannel pipette was then used to deliver 99 μl of the diluted inocula into each well of the corresponding daughter plate.
(§9) Incubate the daughter plates at 37° C., 85% humidity for 18-20 hr.
(§10) A magnifying mirror device was used for ease of scoring the presence or absence of growth in the wells. 96-well micro-plates were photographed.

[2] = tested on: Staphylococcus aureus, NRS384; conditions: 18-20 hr, lowest concentration that completely inhibits visible growth; for MIC: Staphylococcus aureus, NRS384, 37° C., read-out: Compound MICs, Staphylococcus aureus, NRS384; for Compound MICs, Staphylococcus aureus, NRS384: 37° C.
Experimental: as §1, §2, §3, §4, §5, §6, §7, §8, §9, §10

[3] = tested on: Escherichia coli, ATCC BAA-198; conditions: 18-20 hr, lowest concentration that completely inhibits visible growth; for MIC: Escherichia coli, ATCCBAA198, 37° C., read-out: Compound MICs, Escherichia coli, ATCC BAA-198; for Compound MICs, Escherichia coli, ATCC BAA-198: 37° C.
Experimental: as §1, §2, §3, §4, §5, §6, §7, §8, §9, §10

[4] = tested on: Enterococcus faecalis, ATCC 51575; conditions: 18-20 hr, lowest concentration that completely inhibits visible growth; for MIC: Enterococcus faecalis, ATCC51575, 37° C., read-out: Compound MICs, Enterococcus faecalis, ATCC 51575; for Compound MICs, Enterococcus faecalis, ATCC 51575: 37° C.
Experimental: as §1, §2, §3, §4, §5, §6, §7, §8, §9, §10

[5] = tested on: Salmonella typhimurium, CMCC 50115; conditions: 37° C., 18-20 hr, lowest concentration that completely inhibits visible growth; for MIC: Salmonella enterica, read-out: Compound MICs, Salmonella typhimurium, CMCC 50115
Experimental: as §1, §2, §3, §4, §5, §6, §7, §8, §9, §10

| Compound | MIC [1] | MIC [2] | MIC [3] | MIC [4] | MIC [5] | Compound MICs, Acinetobacter baumannii, ATCC 17978 [1] | Compound MICs, Staphylococcus aureus, NRS384 [2] | Compound MICs, Escherichia coli, ATCC BAA-198 [3] | Compound MICs, Enterococcus faecalis, ATCC 51575 [4] | Compound MICs, Salmonella typhimurium, CMCC 50115 [5] |
| --- | --- | --- | --- | --- | --- | --- | --- | --- | --- | --- |
| C#Cc1ccc(Cn2ccc3c4c(N)nc(N)nc4ccc32)cc1 [Compound 1] | 2.37 µg/mL (≈ 7.56 µM) | 0.088 µg/mL (≈ 0.281 µM) | 2.37 µg/mL (≈ 7.56 µM) | 0.01 µg/mL (≈ 0.0319 µM) | 0.088 µg/mL (≈ 0.281 µM) | – | – | – | – | – |
| Nc1nc(NCCO)c2c(ccc3c2ccn3Cc2ccc(-c3ccccc3)cc2)n1 [Compound 2] | 7.11 µg/mL (≈ 17.4 µM) | 2.37 µg/mL (≈ 5.79 µM) | 64 µg/mL (≈ 156 µM) | 2.37 µg/mL (≈ 5.79 µM) | > 64 µg/mL | – | – | – | – | – |
| Nc1nc(N)c2c(ccc3c2ccn3CC#Cc2ccccc2)n1 [Compound 3] | 7.11 µg/mL (≈ 22.7 µM) | 0.26 µg/mL (≈ 0.83 µM) | 7.11 µg/mL (≈ 22.7 µM) | 0.03 µg/mL (≈ 0.0957 µM) | 0.79 µg/mL (≈ 2.52 µM) | – | – | – | – | – |
| Nc1nc(N)c2c(ccc3c2ccn3C/C=C/c2ccccc2)n1 [Compound 4] | 7.11 µg/mL (≈ 22.5 µM) | 0.03 µg/mL (≈ 0.0951 µM) | 7.11 µg/mL (≈ 22.5 µM) | 0.03 µg/mL (≈ 0.0951 µM) | 0.79 µg/mL (≈ 2.5 µM) | – | – | – | – | – |
| Nc1nc(N)c2c(ccc3c2ccn3Cc2cccc(Oc3ccccc3)c2)n1 [Compound 5] | 7.11 µg/mL (≈ 18.6 µM) | 0.26 µg/mL (≈ 0.682 µM) | 7.11 µg/mL (≈ 18.6 µM) | 0.03 µg/mL (≈ 0.0786 µM) | 0.79 µg/mL (≈ 2.07 µM) | – | – | – | – | – |
| CC(C)c1ccc(Cn2ccc3c4c(N)nc(N)nc4ccc32)cc1 [Compound 8] | 0.79 µg/mL (≈ 2.38 µM) | 0.088 µg/mL (≈ 0.266 µM) | 2.37 µg/mL (≈ 7.15 µM) | 0.03 µg/mL (≈ 0.0905 µM) | 0.26 µg/mL (≈ 0.784 µM) | – | – | – | – | – |
| C#Cc1ccc(Cn2ccc3c4c(N)nc(NC5CC5)nc4ccc32)cc1 [Compound 9] | 21.3 µg/mL (≈ 60.3 µM) | 0.79 µg/mL (≈ 2.24 µM) | 21.3 µg/mL (≈ 60.3 µM) | 0.26 µg/mL (≈ 0.736 µM) | 2.37 µg/mL (≈ 6.71 µM) | – | – | – | – | – |
| Nc1nc(N)c2c(ccc3c2ccn3CC2CCCC2)n1 [Compound 11] | 7.11 µg/mL (≈ 25.3 µM) | 0.088 µg/mL (≈ 0.313 µM) | 21.3 µg/mL (≈ 75.7 µM) | 0.03 µg/mL (≈ 0.107 µM) | 0.79 µg/mL (≈ 2.81 µM) | – | – | – | – | – |
| Nc1nc(N)c2c(ccc3c2ccn3Cc2cccc(F)c2)n1 [Compound 12] | 2.37 µg/mL (≈ 7.71 µM) | 0.26 µg/mL (≈ 0.846 µM) | 7.11 µg/mL (≈ 23.1 µM) | 0.03 µg/mL (≈ 0.0976 µM) | 0.79 µg/mL (≈ 2.57 µM) | – | – | – | – | – |
| Nc1nc(N)c2c(ccc3c2ccn3Cc2ccc(F)c(F)c2)n1 [Compound 13] | 2.37 µg/mL (≈ 7.29 µM) | 0.088 µg/mL (≈ 0.271 µM) | 7.11 µg/mL (≈ 21.9 µM) | 0.01 µg/mL (≈ 0.0307 µM) | 0.088 µg/mL (≈ 0.271 µM) | – | – | – | – | – |
| CC(C)C#Cc1ccc(Cn2ccc3c4c(N)nc(N)nc4ccc32)cc1 [Compound 15] | – | – | – | – | – | 21.3 µg/mL | 0.26 µg/mL | 7.11 µg/mL | 0.09 µg/mL | 2.37 µg/mL |
| CC(C)(C)OC(=O)NCC#Cc1ccc(Cn2ccc3c4c(N)nc(N)nc4ccc32)cc1 [Compound 16] | – | – | – | – | – | >64 µg/mL | 0.79 µg/mL | >64 µg/mL | 0.09 µg/mL | 21.3 µg/mL |
| CC(C)C#Cc1ccc(Cn2ccc3c4c(N)nc(NC5CC5)nc4ccc32)cc1 [Compound 17] | – | – | – | – | – | 21.3 µg/mL | 2.37 µg/mL | 21.3 µg/mL | 0.79 µg/mL | 7.11 µg/mL |
| CC#Cc1ccc(Cn2ccc3c4c(N)nc(NC5CC5)nc4ccc32)cc1 [Compound 18] | – | – | – | – | – | 21.3 µg/mL | 2.37 µg/mL | 21.3 µg/mL | 0.79 µg/mL | 7.11 µg/mL |
| Nc1nc(NC2CC2)nc2ccc3c(ccn3Cc3ccc(C#Cc4ccccc4)cc3)c12 [Compound 19] | – | – | – | – | – | >64 µg/mL | 2.37 µg/mL | >64 µg/mL | 0.79 µg/mL | 21.3 µg/mL |
| Nc1nc(NC2CC2)nc2ccc3c(ccn3Cc3ccc(C#CC4CC4)cc3)c12 [Compound 20] | – | – | – | – | – | 64 µg/mL | 2.37 µg/mL | >64 µg/mL | 0.79 µg/mL | 21.3 µg/mL |
| Nc1nc(N)c2c(ccc3c2ccn3Cc2ccc(C#Cc3ccccc3)cc2)n1 [Compound 23] | – | – | – | – | – | >64 µg/mL | 2.37 µg/mL | >64 µg/mL | 0.26 µg/mL | >64 µg/mL |
| NCC#Cc1ccc(Cn2ccc3c4c(N)nc(N)nc4ccc32)cc1 [Compound 24] | – | – | – | – | – | 64 µg/mL | 0.79 µg/mL | 7.11 µg/mL | 0.26 µg/mL | 0.26 µg/mL |
| CC#Cc1ccc(Cn2ccc3c4c(N)nc(N)nc4ccc32)cc1 [Compound 25] | – | – | – | – | – | 21.3 µg/mL | 0.26 µg/mL | 7.11 µg/mL | 0.09 µg/mL | 0.79 µg/mL |
| Nc1nc(N)c2c(ccc3c2ccn3Cc2ccc3ccccc3c2)n1 [Compound 26] | – | – | – | – | – | 2.37 µg/mL | 0.09 µg/mL | 2.37 µg/mL | 0.09 µg/mL | 0.26 µg/mL |
| CC[Si](C#Cc1ccc(CNc2nc(N)nc3ccc4c(ccn4Cc4ccc(C#C[Si](CC)(CC)CC)cc4)c23)cc1)(CC)CC [Compound 27] | – | – | – | – | – | >64 µg/mL | >64 µg/mL | >64 µg/mL | >64 µg/mL | >64 µg/mL |
